Test results as given in ChEMBL document CHEMBL3611970, “Synthesis and evaluation of isatin-β-thiosemicarbazones as novel agents against antibiotic-resistant Gram-positive bacterial species” (2015).
In brackets after ≈: the same amount, converted by molar mass.

Key:
Type in all cases: functional
Staphylococcus aureus [1] = assay: Antimicrobial activity against methicillin-resistant Staphylococcus aureus 8-24 clinical isolate after 16 hrs by broth microdilution method; conditions: 8-24, 16 h
Pseudomonas aeruginosa = assay: Antimicrobial activity against Pseudomonas aeruginosa PAO1 after 16 hrs by broth microdilution method; conditions: PAO1, 16 h
Staphylococcus aureus [2] = assay: Antimicrobial activity against methicillin-resistant Staphylococcus aureus Chaoyang clinical isolate after 16 hrs by broth microdilution method
Staphylococcus aureus [3] = assay: Antimicrobial activity against methicillin-resistant Staphylococcus aureus 309-7 clinical isolate after 16 hrs by broth microdilution method; conditions: 309-7, 16 h
Staphylococcus aureus [4] = assay: Antimicrobial activity against methicillin-resistant Staphylococcus aureus 309-6 clinical isolate after 16 hrs by broth microdilution method; conditions: 309-6, 16 h
Staphylococcus aureus [5] = assay: Antimicrobial activity against Staphylococcus aureus ATCC 6538 after 16 hrs by broth microdilution method; conditions: ATCC 6538, 16 h
Staphylococcus aureus [6] = assay: Antimicrobial activity against methicillin-resistant Staphylococcus aureus 309-8 clinical isolate after 16 hrs by broth microdilution method; conditions: 309-8, 16 h
Staphylococcus aureus [7] = assay: Antimicrobial activity against methicillin-resistant Staphylococcus aureus 309-1 clinical isolate after 16 hrs by broth microdilution method; conditions: 309-1, 16 h
Staphylococcus aureus [8] = assay: Antimicrobial activity against methicillin-resistant Staphylococcus aureus 309-4 clinical isolate after 16 hrs by broth microdilution method; conditions: 309-4, 16 h
Bacillus spizizenii = assay: Antimicrobial activity against Bacillus subtilis ATCC 6633 after 16 hrs by broth microdilution method; conditions: ATCC 6633, 16 h
Staphylococcus aureus [9] = assay: Antimicrobial activity against methicillin-resistant Staphylococcus aureus 6-42 clinical isolate after 16 hrs by broth microdilution method; conditions: 6-42, 16 h
Enterococcus faecalis [10] = assay: Antimicrobial activity against vancomycin-susceptible Enterococcus faecalis after 16 hrs by broth microdilution method
Enterococcus faecalis [11] = assay: Antimicrobial activity against Enterococcus faecalis VRE-309 after 16 hrs by broth microdilution method; conditions: VRE-309, 16 h
Staphylococcus aureus [12] = assay: Antimicrobial activity against methicillin-resistant Staphylococcus aureus 309-3 clinical isolate after 16 hrs by broth microdilution method; conditions: 309-3, 16 h
Staphylococcus aureus [13] = assay: Antimicrobial activity against methicillin-resistant Staphylococcus aureus 6281 clinical isolate after 16 hrs by broth microdilution method; conditions: Staphylococcus aureus, 6281, 16 h
Staphylococcus aureus [14] = assay: Antimicrobial activity against methicillin-resistant Staphylococcus aureus 8-21 clinical isolate after 16 hrs by broth microdilution method; conditions: 8-21, 16 h
Klebsiella pneumoniae = assay: Antimicrobial activity against Klebsiella pneumoniae KP-249 clinical isolate after 16 hrs by broth microdilution method; conditions: KP-249, 16 h

SMILES | MIC (Staphylococcus aureus [1]) [mg/L] | MIC (Pseudomonas aeruginosa) [mg/L] | MIC (Staphylococcus aureus [2]) [mg/L] | MIC (Staphylococcus aureus [3]) [mg/L] | MIC (Staphylococcus aureus [4]) [mg/L] | MIC (Staphylococcus aureus [5]) [mg/L] | MIC (Staphylococcus aureus [6]) [mg/L] | MIC (Staphylococcus aureus [7]) [mg/L] | MIC (Staphylococcus aureus [8]) [mg/L] | MIC (Bacillus spizizenii) [mg/L] | MIC (Staphylococcus aureus [9]) [mg/L] | MIC (Enterococcus faecalis [10]) [mg/L] | MIC (Enterococcus faecalis [11]) [mg/L] | MIC (Staphylococcus aureus [12]) [mg/L] | MIC (Staphylococcus aureus [13]) [mg/L] | MIC (Staphylococcus aureus [14]) [mg/L] | MIC (Klebsiella pneumoniae) [mg/L]
O=C1Nc2c(I)cccc2/C1=N/NC(=S)Nc1cccc(Cl)c1 | 3.12 (≈ 6.83 µM) | > 100 | 0.78 (≈ 1.71 µM) | 3.12 (≈ 6.83 µM) | 6.25 (≈ 13.7 µM) | 3.12 (≈ 6.83 µM) | 6.25 (≈ 13.7 µM) | 3.12 (≈ 6.83 µM) | 1.56 (≈ 3.42 µM) | ≤ 0.78 | 3.12 (≈ 6.83 µM) | 12.5 (≈ 27.4 µM) | 3.12 (≈ 6.83 µM) | 3.12 (≈ 6.83 µM) | 6.25 (≈ 13.7 µM) | 6.25 (≈ 13.7 µM) | > 100
COc1cccc(NC(=S)N/N=C2\C(=O)Nc3c(I)cccc32)c1 | 6.25 (≈ 13.8 µM) | > 100 | 1.56 (≈ 3.45 µM) | 3.12 (≈ 6.9 µM) | 25 (≈ 55.3 µM) | > 100 | 25 (≈ 55.3 µM) | 6.25 (≈ 13.8 µM) | 6.25 (≈ 13.8 µM) | 1.56 (≈ 3.45 µM) | 3.12 (≈ 6.9 µM) | > 100 | 25 (≈ 55.3 µM) | 12.5 (≈ 27.6 µM) | 25 (≈ 55.3 µM) | 6.25 (≈ 13.8 µM) | > 100
Cc1cccc(NC(=S)N/N=C2\C(=O)Nc3c(I)cccc32)c1 | 1.56 (≈ 3.58 µM) | > 100 | 0.78 (≈ 1.79 µM) | 0.78 (≈ 1.79 µM) | 3.12 (≈ 7.15 µM) | 3.12 (≈ 7.15 µM) | 1.56 (≈ 3.58 µM) | 1.56 (≈ 3.58 µM) | 1.56 (≈ 3.58 µM) | ≤ 0.78 | 1.56 (≈ 3.58 µM) | 12.5 (≈ 28.7 µM) | 3.12 (≈ 7.15 µM) | 3.12 (≈ 7.15 µM) | 6.25 (≈ 14.3 µM) | 1.56 (≈ 3.58 µM) | > 100
O=C1Nc2c(I)cccc2/C1=N/NC(=S)Nc1ccc(Cl)cc1 | 1.56 (≈ 3.42 µM) | > 100 | 0.78 (≈ 1.71 µM) | 0.78 (≈ 1.71 µM) | 3.12 (≈ 6.83 µM) | 1.56 (≈ 3.42 µM) | 1.56 (≈ 3.42 µM) | 1.56 (≈ 3.42 µM) | 0.78 (≈ 1.71 µM) | ≤ 0.78 | 1.56 (≈ 3.42 µM) | 6.25 (≈ 13.7 µM) | 3.12 (≈ 6.83 µM) | 1.56 (≈ 3.42 µM) | 3.12 (≈ 6.83 µM) | 1.56 (≈ 3.42 µM) | > 100
O=C1Nc2c(I)cccc2/C1=N/NC(=S)Nc1ccc(Br)cc1 | 3.12 (≈ 6.23 µM) | > 100 | 0.78 (≈ 1.56 µM) | 1.56 (≈ 3.11 µM) | 6.25 (≈ 12.5 µM) | 3.12 (≈ 6.23 µM) | 3.12 (≈ 6.23 µM) | 1.56 (≈ 3.11 µM) | 1.56 (≈ 3.11 µM) | ≤ 0.78 | 1.56 (≈ 3.11 µM) | 12.5 (≈ 24.9 µM) | 3.12 (≈ 6.23 µM) | 3.12 (≈ 6.23 µM) | 3.12 (≈ 6.23 µM) | 3.12 (≈ 6.23 µM) | > 100
COc1ccc(NC(=S)N/N=C2\C(=O)Nc3c(I)cccc32)cc1 | 6.25 (≈ 13.8 µM) | > 100 | 1.56 (≈ 3.45 µM) | 1.56 (≈ 3.45 µM) | 25 (≈ 55.3 µM) | > 100 | 6.25 (≈ 13.8 µM) | 6.25 (≈ 13.8 µM) | 6.25 (≈ 13.8 µM) | 3.12 (≈ 6.9 µM) | 3.12 (≈ 6.9 µM) | > 100 | > 100 | 12.5 (≈ 27.6 µM) | 12.5 (≈ 27.6 µM) | 6.25 (≈ 13.8 µM) | > 100
Cc1ccc(NC(=S)N/N=C2\C(=O)Nc3c(I)cccc32)cc1 | 3.12 (≈ 7.15 µM) | > 100 | 0.78 (≈ 1.79 µM) | 0.78 (≈ 1.79 µM) | 3.12 (≈ 7.15 µM) | 6.25 (≈ 14.3 µM) | 1.56 (≈ 3.58 µM) | 3.12 (≈ 7.15 µM) | 1.56 (≈ 3.58 µM) | 1.56 (≈ 3.58 µM) | 0.78 (≈ 1.79 µM) | 12.5 (≈ 28.7 µM) | 3.12 (≈ 7.15 µM) | 3.12 (≈ 7.15 µM) | 6.25 (≈ 14.3 µM) | 1.56 (≈ 3.58 µM) | > 100
COc1ccccc1NC(=S)N/N=C1\C(=O)Nc2c(F)cccc21 | > 100 | > 100 | > 100 | > 100 | > 100 | > 100 | > 100 | > 100 | > 100 | > 100 | > 100 | > 100 | > 100 | > 100 | > 100 | > 100 | > 100
O=C1Nc2c(I)cccc2/C1=N/NC(=S)Nc1cccc(F)c1 | 1.56 (≈ 3.54 µM) | > 100 | 0.78 (≈ 1.77 µM) | 0.78 (≈ 1.77 µM) | 1.56 (≈ 3.54 µM) | 1.56 (≈ 3.54 µM) | 0.78 (≈ 1.77 µM) | 0.78 (≈ 1.77 µM) | 0.78 (≈ 1.77 µM) | ≤ 0.78 | 0.78 (≈ 1.77 µM) | 6.25 (≈ 14.2 µM) | 3.12 (≈ 7.09 µM) | 1.56 (≈ 3.54 µM) | 3.12 (≈ 7.09 µM) | 1.56 (≈ 3.54 µM) | > 100
O=C1Nc2c(I)cccc2/C1=N/NC(=S)Nc1ccc(F)cc1 | 1.56 (≈ 3.54 µM) | > 100 | 0.78 (≈ 1.77 µM) | 0.78 (≈ 1.77 µM) | 3.12 (≈ 7.09 µM) | 1.56 (≈ 3.54 µM) | 1.56 (≈ 3.54 µM) | 3.12 (≈ 7.09 µM) | 1.56 (≈ 3.54 µM) | ≤ 0.78 | 0.78 (≈ 1.77 µM) | 6.25 (≈ 14.2 µM) | 3.12 (≈ 7.09 µM) | 1.56 (≈ 3.54 µM) | 3.12 (≈ 7.09 µM) | 1.56 (≈ 3.54 µM) | > 100
O=C(O)c1cn(C2CC2)c2cc(N3CCNCC3)c(F)cc2c1=O [CIPROFLOXACIN] |  | 1 (≈ 3.02 µM) |  |  |  |  |  |  |  |  |  |  |  |  |  |  | 
COc1cccc(OC)c1C(=O)N[C@@H]1C(=O)N2[C@@H]1SC(C)(C)[C@@H]2C(=O)O [METHICILLIN] | > 200 |  |  | > 200 | > 200 |  | > 200 | > 200 | > 200 |  | > 200 |  |  | > 200 | > 200 | > 200 | 
CN[C@H](CC(C)C)C(=O)N[C@H]1C(=O)N[C@@H](CC(N)=O)C(=O)N[C@H]2C(=O)N[C@H]3C(=O)N[C@H](C(=O)N[C@H](C(=O)O)c4cc(O)cc(O)c4-c4cc3ccc4O)[C@H](O)c3ccc(c(Cl)c3)Oc3cc2cc(c3O[C@@H]2O[C@H](CO)[C@@H](O)[C@H](O)[C@H]2O[C@H]2C[C@](C)(N)[C@H](O)[C@H](C)O2)Oc2ccc(cc2Cl)[C@H]1O [VANCOMYCIN] |  |  |  |  |  |  |  |  |  | 0.5 (≈ 0.345 µM) |  | 2 (≈ 1.38 µM) | > 8 |  |  |  | 
